This is an account of results in US7211572B2 (Japan Tobacco Inc., priority 2003, dated 2007).

The target of the assay is T1, HIV integrase (Human immunodeficiency virus type 1 group M subtype B, UniProt P12497, F1332H).
T1 construct: HIV integrase full length gene; made in house; host or cells: Escherichia coli BL21(DE3), plasmid pET21a-INH
Put plainly: Determination of enzyme (HIV integrase) inhibitory activity. The class given is biochemical. The note with it: recombinant HIV integrase (F185H), strand transfer ELISA, absorbance at 450 nm. The text has this: The following explains evaluation methods of the HIV integrase inhibitory activity of the compound of the present invention.
(i) Construction of Recombinant Integrase Gene Expression System
The 185th phenylalanine of HIV integrase full length gene (J. Virol., 67, 425–437 (1993)) was substituted by histidine and inserted into the restriction enzyme NdeI and XhoI sites of plasmid pET21a(+) (Novagen), whereby an integrase expression vector pET21a-INH was constructed.
(ii) Production and Purification of Integrase Protein
Escherichia coli recombinant BL21(DE3) transformed with plasmid pET21a-INH obtained in (i) was shake cultured at 37° C. in a liquid medium containing ampicillin. When the culture reached the logarithmic growth phase, isopropyl-β-D-thiogalactopyranoside was added to promote expression of integrase gene. The culture was continued for 3 hr to promote accumulation of the integrase protein. The recombinant E. coli was collected in pellets by centrifugal separation and preserved at −80° C.
The E. coli was suspended in Lysis buffer (20 mM HEPES (pH 7.5), 5 mM DTT, 10 mM CHAPS, 10% glycerol) containing 1M sodium chloride and subjected to repeat pressurization and depressurization for rupture, and centrifugal separation at 4° C., 40,000×g, 60 min to recover a water-soluble fraction (supernatant). This was diluted 10-fold with Lysis buffer free of sodium chloride, mixed with SP-Sepharose (Pharmacia Corporation) and stirred at 4° C. for 30 min to allow adsorption of integrase protein to the resin. The resin was washed with Lysis buffer containing 100 mM sodium chloride and the integrase protein was eluted with Lysis buffer containing 1M sodium chloride.
The eluted integrase protein solution was applied to a Superdex 75 (Pharmacia Corporation) column for gel filtration. The protein was eluted with Lysis buffer containing 1M sodium chloride.
The obtained fractions of the integrase protein were collected and preserved at −80° C.
(iii) Preparation of DNA Solution
The following DNA synthesized by Greiner was dissolved in TE buffer (10 mM Tris-hydrochloric acid (pH 8.0), 1 mM EDTA) and mixed with donor DNA, target DNA, and each complementary strand (+ and − strands) to 1 μM. The mixture was heated at 95° C. for 5 min, 80° C. for 10 min, 70° C. for 10 min, 60° C. for 10 min, 50° C. for 10 min and 40° C. for 10 min and preserved at 25° C. to give a double stranded DNA, which was used for the test.
Donor DNA (− strand having biotin attached to the 5′ terminal)
(iv) Determination of Enzyme (HIV Integrase) Inhibitory Activity
The donor DNA was diluted with TE buffer to 10 nM, of which 50 μl was added to each well of streptavidin-coated microtiter plate (Roche) and allowed to adsorb at 37° C. for 60 min. The DNA was washed with phosphate buffer (Dulbecco PBS, Sanko Junyaku Co., Ltd.) containing 0.1% Tween 20 and phosphate buffer. Then, a reaction mixture (70 μl) having the following composition, a test substance (10 μl) diluted with the reaction mixture and 100 μg/ml integrase protein (10 μl) were added to each well and reacted at 37° C. for 60 min.
Composition of the reaction mixture: 30 mM MOPS (3-morpholinopropanesulfonic acid), 5 mM magnesium chloride, 3 mM DTT (dithiothreitol), 0.1 mg/ml BSA (bovine serum albumin), 5% glycerol, 10% DMSO (dimethyl sulfoxide), 0.01% Tween 20.
Then, 50 nM target DNA (10 μl) was added, reacted at 37° C. for 10 min and washed with phosphate buffer containing 0.1% Tween 20 to stop the reaction.
Then, 100 mU/ml peroxidase labeled anti-digoxigenin antibody solution (Roche, 100 μl) was added, and the mixture was reacted at 30° C. for 60 min, followed by washing with phosphate buffer containing 0.1% Tween 20.
A peroxidase color solution (Bio Rad, 100 μl) was added and allowed to react at room temperature for 4 min. The color reaction was stopped by adding 1N sulfuric acid (100 μl). The absorbance at 450 nm was measured. […]
On the technique in general: An ELISA detects its analyte on a solid surface through an enzyme-linked reagent.

Where a name gives a salt, the structure may show the parent alone. Bounds are passed on as bounds.

`CNC(=O)c1cn2c(c(O)c1=O)C(=O)N(Cc1cccc(Cl)c1F)CC2` [Example 361, N-methyl-2-(3-chloro-2-fluorobenzyl)-9-hydroxy-1,8-dioxo-1,3,4,8-tetrahydro-2H-pyrido[1,2-a]pyrazine-7-carboxamide]: the half-inhibitory concentration (IC50) (as a rule, the midpoint of a concentration-inhibition curve) was in the range of 10 to 100 nM.
The same measure for `CCCOc1ccc(CN2CCn3cc(-c4nccs4)c(=O)c(O)c3C2=O)cc1Cl` [Example 354, 2-(3-chloro-4-propoxybenzyl)-9-hydroxy-7-(thiazol-2-yl)-3,4-dihydro-2H-pyrido[1,2-a]pyrazine-1,8-dione hydrochloride]: 10 to 100 nM; for `Cc1cn(Cc2ccc(Cl)c(Cl)c2)c(=O)c2c(O)c(=O)ccn12` [Example 72, 2-(3,4-dichlorobenzyl)-9-hydroxy-4-methyl-2H-pyrido[1,2-a]pyrazine-1,8-dione hydrochloride]: under 10 nM; for `Cc1nn(Cc2cccc(Cl)c2)c(=O)c2c(O)c(=O)ccn12` [Example 162, 2-(3-chlorobenzyl)-9-hydroxy-4-methyl-2H-pyrido[1,2-d][1,2,4]triazine-1,8-dione hydrochloride]: 10 to 100 nM.
The same measure for `O=C1c2c(O)c(=O)c3ccccc3n2CCN1Cc1cccc(Cl)c1` [Example 111, 3-(3-chlorobenzyl)-5-hydroxy-2,3-dihydro-1H-pyrazino[1,2-a]quinoline-4,6-dione]: 10 to 100 nM; for `O=C(Cc1cc(=O)c(O)c2n1CCN(Cc1ccc(Cl)c(Cl)c1)C2=O)OCc1ccccc1` [Example 81]: under 10 nM; for `CN(C)C(=O)Cc1cn2ccn(Cc3cccc(Cl)c3)c(=O)c2c(O)c1=O` [Example 190, 2-[2-(3-chlorobenzyl)-9-hydroxy-1,8-dioxo-1,8-dihydro-2H-pyrido[1,2-a]pyrazin-7-yl]-N,N-dimethylacetamide]: 10 to 100 nM.
The same measure for `O=c1ccn2ccn(Cc3ccc(Cl)cc3)c(=O)c2c1O` [Example 151, 2-(4-chlorobenzyl)-9-hydroxy-2H-pyrido[1,2-a]pyrazine-1,8-dione hydrochloride]: 10 to 100 nM; for `O=c1c(-c2ccccc2C(F)(F)F)cn2ccn(Cc3cccc(Cl)c3)c(=O)c2c1O` [Example 127, 2-(3-chlorobenzyl)-9-hydroxy-7-(2-trifluoromethylphenyl)-2H-pyrido[1,2-a]pyrazine-1,8-dione hydrochloride]: under 10 nM; for `CC(C)(C)Cc1cn2ccn(Cc3cccc(Cl)c3)c(=O)c2c(O)c1=O` [Example 126, 2-(3-chlorobenzyl)-7-(2,2-dimethylpropyl)-9-hydroxy-2H-pyrido[1,2-a]pyrazine-1,8-dione hydrochloride]: 10 to 100 nM.
As to `O=c1c(-c2ccncn2)cn2ccn(Cc3ccc(F)c(Cl)c3)c(=O)c2c1O` [Example 395, 2-(3-chloro-4-fluorobenzyl)-9-hydroxy-7-(pyrimidin-4-yl)-2H-pyrido[1,2-a]pyrazine-1,8-dione hydrochloride], the half-maximal inhibitory concentration (IC50) was under 10 nM.
The figure for `CC(=O)Nc1ccc(CNC(=O)c2cn3c(c(O)c2=O)C(=O)N(Cc2ccc(F)cc2)CC3)cc1` [Example 428, N-(4-acetylaminobenzyl)-2-(4-fluorobenzyl)-9-hydroxy-1,8-dioxo-1,3,4,8-tetrahydro-2H-pyrido[1,2-a]pyrazine-7-carboxamide] is 10 to 100 nM; for `O=C(NC(CCc1ccccc1)c1ccccc1)c1cn2c(c(O)c1=O)C(=O)N(Cc1cccc(Cl)c1)CC2` (centres unmarked) [Example 334, N-(1,3-diphenylpropyl)-2-(3-chlorobenzyl)-9-hydroxy-1,8-dioxo-1,3,4,8-tetrahydro-2H-pyrido[1,2-a]pyrazine-7-carboxamide] it is 10 to 100 nM; for `O=C1c2c(O)c(=O)cc(CCO)n2CCN1Cc1ccc(Cl)c(Cl)c1` [Example 83, 2-(3,4-dichlorobenzyl)-9-hydroxy-6-(2-hydroxyethyl)-3,4-dihydro-2H-pyrido[1,2-a]pyrazine-1,8-dione] it is 10 to 100 nM.
The figure for `O=c1c(-c2cnccn2)cn2ccn(Cc3cccc(F)c3)c(=O)c2c1O` [Example 404, 2-(3-fluorobenzyl)-9-hydroxy-7-(pyrazin-2-yl)-2H-pyrido[1,2-a]pyrazine-1,8-dione hydrochloride] is 10 to 100 nM; for `Cc1cccc(C)c1-c1cn2ccn(Cc3cccc(Cl)c3)c(=O)c2c(O)c1=O` [Example 135, 2-(3-chlorobenzyl)-7-(2,6-dimethylphenyl)-9-hydroxy-2H-pyrido[1,2-a]pyrazine-1,8-dione hydrochloride] it is 10 to 100 nM.
The figure for `Cc1nsc(-c2cn3c(c(O)c2=O)C(=O)N(Cc2cccc(Cl)c2)CC3)n1` [Example 300, 2-(3-chlorobenzyl)-9-hydroxy-7-(3-methyl-1,2,4-thiadiazol-5-yl)-3,4-dihydro-2H-pyrido[1,2-a]pyrazine-1,8-dione hydrochloride] is 10 to 100 nM; for `O=c1ccn2ccn(C/C=C/c3ccccc3)c(=O)c2c1O` [Example 206, 9-hydroxy-2-(3-phenylallyl)-2H-pyrido[1,2-a]pyrazine-1,8-dione] it is 10 to 100 nM; for `O=C(OCc1ccccc1)C(Cc1ccccc1)c1cc(=O)c(O)c2n1CCN(Cc1ccc(Cl)c(Cl)c1)C2=O` (centres unmarked) [Example 82, benzyl 2-[2-(3,4-dichlorobenzyl)-9-hydroxy-1,8-dioxo-1,3,4,8-tetrahydro-2H-pyrido[1,2-a]pyrazin-6-yl]-3-phenylpropionate] it is 10 to 100 nM.
As to `O=c1ccn2ccn(CCCc3cccc(Cl)c3)c(=O)c2c1O` [Example 76, 2-[3-(3-chlorophenyl)propyl]-9-hydroxy-2H-pyrido[1,2-a]pyrazine-1,8-dione], the IC50 lay within 10 to 100 nM.
Turning to `CCN(CC)C(=O)c1cn2ccn(Cc3cccc(Cl)c3)c(=O)c2c(O)c1=O` [Example 156, N,N-diethyl-2-(3-chlorobenzyl)-9-hydroxy-1,8-dioxo-1,8-dihydro-2H-pyrido[1,2-a]pyrazine-7-carboxamide], the IC50 fell in the range of 10 to 100 nM.
The same measure for `CCN(CC)c1cn2ccn(Cc3cccc(Cl)c3)c(=O)c2c(O)c1=O` [Example 281, 2-(3-chlorobenzyl)-7-diethylamino-9-hydroxy-2H-pyrido[1,2-a]pyrazine-1,8-dione hydrochloride]: 10 to 100 nM.
With `O=c1ccn2ccn(Cc3ccc(Cl)cc3O)c(=O)c2c1O` [Example 224, 2-(4-chloro-2-hydroxybenzyl)-9-hydroxy-2H-pyrido[1,2-a]pyrazine-1,8-dione hydrochloride], the IC50 was in the range of 10 to 100 nM.
The same measure for `COc1cc(Cn2ccn3ccc(=O)c(O)c3c2=O)ccc1Cl` [Example 186, 2-(4-chloro-3-methoxybenzyl)-9-hydroxy-2H-pyrido[1,2-a]pyrazine-1,8-dione hydrochloride]: 10 to 100 nM.
For the compound `O=C1c2c(O)c(=O)c(-c3nccs3)cn2CCN1Cc1ccc(OCc2ccccc2)c(Cl)c1` [Example 356, 2-(4-benzyloxy-3-chlorobenzyl)-9-hydroxy-7-(thiazol-2-yl)-3,4-dihydro-2H-pyrido[1,2-a]pyrazine-1,8-dione hydrochloride], the IC50 was in the range of 10 to 100 nM.
For `O=C(NCCN1CCCC1=O)c1cn2ccn(Cc3cccc(Cl)c3)c(=O)c2c(O)c1=O` [Example 210, N-[2-(2-oxopyrrolidin-1-yl)ethyl)-2-(3-chlorobenzyl)-9-hydroxy-1,8-dioxo-1,8-dihydro-2H-pyrido[1,2-a]pyrazine-7-carboxamide], the IC50 fell in the range of 10 to 100 nM.
